{"source": "ChEMBL document CHEMBL1152200", "about": "“Synthesis and biological evaluation of novel sulfonyl-naphthalene-1,4-diols as FabH inhibitors” (Bioorg Med Chem Lett, 2008)", "key": {"Plasmodium falciparum": {"test_system": "Plasmodium falciparum", "test": "Antiplasmodial activity against chloroquine-sensitive Plasmodium falciparum D6", "type": "functional, organism-based"}, "[1]": {"test": "Inhibition of Escherichia coli FabH"}, "Escherichia coli [2]": {"test_system": "Escherichia coli", "test": "Antibacterial activity against Escherichia coli tolC mutant", "type": "functional"}, "[3]": {"target": "T1, Beta-ketoacyl-ACP-synthase III (Plasmodium falciparum, UniProt O77078)", "T1 sequence (O77078 whole entry)": "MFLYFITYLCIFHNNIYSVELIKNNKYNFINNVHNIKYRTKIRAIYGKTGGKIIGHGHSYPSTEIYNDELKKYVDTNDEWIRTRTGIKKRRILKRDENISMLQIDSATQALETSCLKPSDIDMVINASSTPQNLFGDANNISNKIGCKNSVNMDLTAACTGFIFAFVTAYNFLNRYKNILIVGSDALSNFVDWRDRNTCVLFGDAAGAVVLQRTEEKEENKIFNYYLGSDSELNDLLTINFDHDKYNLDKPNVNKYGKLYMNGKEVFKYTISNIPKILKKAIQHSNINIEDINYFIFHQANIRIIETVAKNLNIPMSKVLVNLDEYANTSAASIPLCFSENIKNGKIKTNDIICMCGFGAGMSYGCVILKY", "test": "Inhibition of Plasmodium falciparum FabH"}, "[4]": {"target": "T2, Mycobacterial beta-ketoacyl-[acyl-carrier-protein] synthase III (Mycobacterium tuberculosis, UniProt P9WNG3)", "T2 sequence (P9WNG3 whole entry)": "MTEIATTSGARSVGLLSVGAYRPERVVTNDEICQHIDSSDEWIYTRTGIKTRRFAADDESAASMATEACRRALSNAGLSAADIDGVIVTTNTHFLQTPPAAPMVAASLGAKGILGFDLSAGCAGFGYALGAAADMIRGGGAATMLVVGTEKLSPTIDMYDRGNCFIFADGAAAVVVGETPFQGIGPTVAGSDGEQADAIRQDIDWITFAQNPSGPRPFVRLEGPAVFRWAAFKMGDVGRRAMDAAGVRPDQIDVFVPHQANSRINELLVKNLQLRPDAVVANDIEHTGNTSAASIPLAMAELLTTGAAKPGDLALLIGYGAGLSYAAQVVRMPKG", "test": "Inhibition of Mycobacterium tuberculosis FabH"}, "Escherichia coli [5]": {"test_system": "Escherichia coli", "test": "Inhibition of Escherichia coli FabH at below 10 uM"}, "[6]": {"target": "T3, Beta-ketoacyl-ACP-synthase III (Plasmodium falciparum) (UniProt O77078)", "T3 sequence (whole entry)": "T1 sequence (O77078 whole entry)", "test": "Inhibition of Plasmodium falciparum FabH at below 100 uM"}, "Escherichia coli [7]": {"test_system": "Escherichia coli", "test": "Inhibition of Escherichia coli FabH assessed as restoration activity in presence of phosphate buffer after 16 hrs", "parameters": "scale not given: the % may be the effect or the level left"}}, "note": "The source made the active and inactive calls. No cut-off for these calls is given here."}
{"smiles": "CC(=O)Nc1ccc(S(=O)(=O)c2cc(O)c3ccccc3c2O)cc1", "values": [{"measurement": "IC50", "setting": "Plasmodium falciparum", "result": 4.98, "unit": "µg/mL"}, {"measurement": "IC50", "setting": "[1]", "result": 11.8, "unit": "nM"}, {"measurement": "MIC99", "setting": "Escherichia coli [2]", "result": 12.3, "unit": "µg/mL"}, {"measurement": "IC50", "setting": "[3]", "result": 29.6, "unit": "nM"}, {"measurement": "IC50", "setting": "[4]", "result": 3.76, "unit": "nM"}]}
{"smiles": "Cc1ccc(S(=O)(=O)c2cc(O)ccc2O)cc1", "values": [{"measurement": "Activity", "setting": "Escherichia coli [5]", "result": "inactive"}, {"measurement": "IC50", "setting": "Plasmodium falciparum", "result": 31.3, "unit": "µg/mL"}, {"measurement": "IC50", "setting": "[1]", "result": "> 10000", "unit": "nM"}, {"measurement": "MIC99", "setting": "Escherichia coli [2]", "result": "> 90", "unit": "µg/mL"}, {"measurement": "Activity", "setting": "[6]", "result": "inactive"}, {"measurement": "IC50", "setting": "[4]", "result": 34.4, "unit": "nM"}]}
{"smiles": "Cc1ccc(S(=O)(=O)c2cc(O)c3ccccc3c2O)cc1", "values": [{"measurement": "IC50", "setting": "Plasmodium falciparum", "result": 7.69, "unit": "µg/mL"}, {"measurement": "Activity", "setting": "Escherichia coli [7]", "result": 90, "unit": "%"}, {"measurement": "IC50", "setting": "[1]", "result": 13.6, "unit": "nM"}, {"measurement": "MIC99", "setting": "Escherichia coli [2]", "result": 14.1, "unit": "µg/mL"}, {"measurement": "IC50", "setting": "[3]", "result": 73.6, "unit": "nM"}, {"measurement": "IC50", "setting": "[4]", "result": 0.61, "unit": "nM"}]}
{"smiles": "Cc1ccc(SC2=CC(=O)c3ccccc3C2=O)cc1", "values": [{"measurement": "Activity", "setting": "Escherichia coli [5]", "result": "inactive"}, {"measurement": "Activity", "setting": "[6]", "result": "inactive"}, {"measurement": "IC50", "setting": "[4]", "result": 112, "unit": "nM"}]}
{"smiles": "CCCc1ccc(S(=O)(=O)c2cc(O)c3ccccc3c2O)cc1", "values": [{"measurement": "IC50", "setting": "[1]", "result": 9.7, "unit": "nM"}, {"measurement": "IC50", "setting": "[3]", "result": 72.6, "unit": "nM"}, {"measurement": "IC50", "setting": "[4]", "result": 3.09, "unit": "nM"}]}
{"smiles": "O=C(O)CCS(=O)(=O)c1cc(O)c2ccccc2c1O", "values": [{"measurement": "IC50", "setting": "[1]", "result": 96.5, "unit": "nM"}, {"measurement": "IC50", "setting": "[3]", "result": 46.5, "unit": "nM"}, {"measurement": "IC50", "setting": "[4]", "result": 3.53, "unit": "nM"}]}
{"smiles": "Cc1ccc(S(=O)(=O)c2cc(O)c3cc4ccccc4cc3c2O)cc1", "values": [{"measurement": "IC50", "setting": "[1]", "result": 112, "unit": "nM"}, {"measurement": "IC50", "setting": "[3]", "result": 341, "unit": "nM"}, {"measurement": "IC50", "setting": "[4]", "result": 8.47, "unit": "nM"}]}
{"smiles": "O=S(=O)(c1ccc2ccccc2c1)c1cc(O)c2ccccc2c1O", "values": [{"measurement": "IC50", "setting": "[1]", "result": 15.4, "unit": "nM"}, {"measurement": "IC50", "setting": "[3]", "result": 393, "unit": "nM"}, {"measurement": "IC50", "setting": "[4]", "result": 1.49, "unit": "nM"}]}
{"smiles": "Cc1ccc(S(=O)(=O)C2=CC(=O)c3ccccc3C2=O)cc1", "values": [{"measurement": "IC50", "setting": "[1]", "result": 187, "unit": "nM"}, {"measurement": "IC50", "setting": "[3]", "result": 1420, "unit": "nM"}, {"measurement": "IC50", "setting": "[4]", "result": 1.99, "unit": "nM"}]}
{"smiles": "CC(=O)Nc1ccc(S(=O)(=O)c2cc(O)ccc2O)cc1", "values": [{"measurement": "Activity", "setting": "Escherichia coli [5]", "result": "inactive"}, {"measurement": "IC50", "setting": "Plasmodium falciparum", "result": 3.96, "unit": "µg/mL"}, {"measurement": "IC50", "setting": "[1]", "result": "> 10000", "unit": "nM"}, {"measurement": "MIC99", "setting": "Escherichia coli [2]", "result": "> 90", "unit": "µg/mL"}, {"measurement": "Activity", "setting": "[6]", "result": "inactive"}, {"measurement": "IC50", "setting": "[4]", "result": 31.4, "unit": "nM"}]}
{"smiles": "O=S(=O)(c1ccccc1)c1cc(O)c2ccccc2c1O", "values": [{"measurement": "IC50", "setting": "[1]", "result": 21.2, "unit": "nM"}, {"measurement": "IC50", "setting": "[3]", "result": 279, "unit": "nM"}, {"measurement": "IC50", "setting": "[4]", "result": 2.84, "unit": "nM"}]}
{"smiles": "O=S(=O)(c1ccc(Cl)cc1)c1cc(O)c2ccccc2c1O", "values": [{"measurement": "IC50", "setting": "Plasmodium falciparum", "result": 3.23, "unit": "µg/mL"}, {"measurement": "IC50", "setting": "[1]", "result": 8.8, "unit": "nM"}, {"measurement": "IC50", "setting": "[3]", "result": 129, "unit": "nM"}, {"measurement": "IC50", "setting": "[4]", "result": 3.61, "unit": "nM"}]}
{"smiles": "Cc1ccc(S(=O)(=O)c2ccc3ccccc3c2)cc1", "values": [{"measurement": "Activity", "setting": "Escherichia coli [5]", "result": "inactive"}, {"measurement": "IC50", "setting": "Plasmodium falciparum", "result": 8.74, "unit": "µg/mL"}, {"measurement": "IC50", "setting": "[1]", "result": "> 10000", "unit": "nM"}, {"measurement": "MIC99", "setting": "Escherichia coli [2]", "result": "> 90", "unit": "µg/mL"}, {"measurement": "Activity", "setting": "[6]", "result": "inactive"}, {"measurement": "IC50", "setting": "[4]", "result": 138, "unit": "nM"}]}
{"smiles": "CS(=O)(=O)c1cc(O)c2ccccc2c1O", "values": [{"measurement": "IC50", "setting": "[1]", "result": 87.3, "unit": "nM"}, {"measurement": "MIC99", "setting": "Escherichia coli [2]", "result": 9.7, "unit": "µg/mL"}, {"measurement": "IC50", "setting": "[3]", "result": 27.4, "unit": "nM"}, {"measurement": "IC50", "setting": "[4]", "result": 3.53, "unit": "nM"}]}
